Data as given in PubChem BioAssay (NCI).
Where “and” joins values, the source holds several entries; their conditions need not be identical. Identical values can stand only once.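 In this assay, cells in 96-well plates receive the compound at five concentrations for 48 hours. Endpoints are linearly interpolated between the surrounding concentrations. GI50 is the concentration that inhibits growth by half. The concentration for full growth arrest is given as TGI.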

Tests used:
Assay in all cases: inhibition of tumour cell growth, NCI panel, 48 h
A498 renal = test system: A498 renal
CCRF-CEM leukemia = test system: CCRF-CEM leukemia
HCC-2998 colon = test system: HCC-2998 colon
IGROV1 ovarian = test system: IGROV1 ovarian
OVCAR-3 ovarian = test system: OVCAR-3 ovarian
OVCAR-5 ovarian = test system: OVCAR-5 ovarian
PC-3 prostate = test system: PC-3 prostate
SK-MEL-5 melanoma = test system: SK-MEL-5 melanoma
SN12C renal = test system: SN12C renal
UACC-62 melanoma = test system: UACC-62 melanoma

| SMILES | TGI (A498 renal) | TGI (CCRF-CEM leukemia) | TGI (HCC-2998 colon) | TGI (IGROV1 ovarian) | TGI (OVCAR-3 ovarian) | TGI (OVCAR-5 ovarian) | TGI (PC-3 prostate) [µM] | TGI (SK-MEL-5 melanoma) | TGI (SN12C renal) [µM] | TGI (UACC-62 melanoma) [µM] | GI50 (A498 renal) | GI50 (IGROV1 ovarian) | GI50 (OVCAR-5 ovarian) |
| --- | --- | --- | --- | --- | --- | --- | --- | --- | --- | --- | --- | --- | --- |
| Cc1cc(S(=O)(=O)Nc2n[nH]c(N)n2)c(S)cc1Cl | > 10 µM | > 10 µM | > 10 µM | > 10 µM | > 10 µM | > 10 µM | > 10 | > 10 µM | > 10 | > 10 |  |  |  |
| CO/C=C(/C(=O)OC)c1ccccc1[C@H]1C[C@@H]1c1ccccc1 | 87.2 µM | > 100 µM | 76.2 µM | 58.1 µM | 67.3 µM | > 100 µM | > 100 | 20.8 µM | 90.3 | 37.2 |  |  |  |
| NC(=O)c1nnc2c(F)cccc2c1N | > 100 µM | > 100 µM | > 100 µM | > 100 µM | > 100 µM | > 100 µM | > 100 | > 100 µM | > 100 | > 100 |  |  |  |
| CC1C/C(=C\c2ccc(O)c(O)c2)C(=O)/C(=C/c2ccc(O)c(O)c2)C1 (stereo not drawn) | 12.8 µM | 7.2 µM | 35.1 µM | 19.8 µM | 18.1 µM | 32.8 µM | 29.9 | 13.7 µM | 20.4 | 13.6 |  |  |  |
| CN1CCN(C2CC(=O)c3c(Cl)sc(Cl)c32)CC1 (stereo not drawn) | > 75 µM | 14.6 µM | 24.6 µM | > 25.6 µM | 38.7 µM | > 60.8 µM | > 100 | > 56.4 µM | 30 | 34.1 |  |  |  |
| Cc1cccc2c1C(=O)/C(=C/c1ccccc1C(=O)O)C2 | > 100 µM | > 100 µM | > 100 µM | > 100 µM | > 100 µM | > 100 µM | > 100 | > 100 µM | > 100 | > 100 |  |  |  |
| CCOC(=O)N1c2c(c3ccccc3n2C(=O)OCC)C(=O)C(OC)N1C(=O)OCC (stereo not drawn) | 88.6 µM | > 100 µM | > 100 µM | > 100 µM | > 100 µM | > 100 µM | 80.5 | 60.7 µM | > 100 | > 100 |  |  |  |
| CC(=O)c1c2c(cc3c1CCC3)CCC2 | > 100 µM | > 100 µM | > 100 µM | > 100 µM | > 100 µM | > 100 µM | > 100 | > 100 µM | > 100 | > 100 |  |  |  |
| O=C1CSC(c2cc3cc(Br)ccc3nc2Cl)N1c1ccc(F)c(Cl)c1 (stereo not drawn) | > 50 µM | > 50 µM | > 50 µM | > 50 µM | > 50 µM | > 50 µM | > 50 | > 50 µM | > 50 | > 50 |  |  |  |
| C/C(=N/NC(=O)c1ccccc1Nc1ccccc1C(=O)N/N=C(\C)c1ccc(C)cc1)c1ccc(C)cc1 | > 100 µM | > 100 µM | > 100 µM | > 100 µM | > 100 µM | > 100 µM | > 100 | > 100 µM | > 100 | > 100 |  |  |  |
| Nc1nn2cc(-c3ccccc3)[n+](CC(=O)c3ccccc3)c2s1 | > 100 µM | 54.6 µM | 31.7 µM | > 100 µM | 71.3 µM | 53.6 µM | > 100 | 73.8 µM | > 100 | > 100 |  |  |  |
| CC(C)(CO)Nc1c(O)c2c(c(O)c1Cl)C(=O)C=CC2=O | 3.36 µM | 1.26 µM | 2.75 µM | 2.92 µM | 2.9 µM | 3.02 µM | 3.41 | 2.35 µM | 2.91 | 2.72 |  |  |  |
| N#Cc1nc(-c2ccccn2)c(-c2ccccn2)nc1C#N | 8.19 µM | > 38.4 µM | 17.6 µM | 22.2 µM | > 42.9 µM | 10 µM | 19.7 | > 36.5 µM | > 100 | 5.1 |  |  |  |
| Cn1c(-c2cccs2)cc(-c2ccsc2)c1-c1ccsc1 | > 100 µM | > 100 µM | > 100 µM | > 100 µM | > 100 µM | > 100 µM | > 100 | > 100 µM | > 100 | > 100 |  |  |  |
| O=C1CSC2=NC3=C(COC/C3=C\c3ccc(F)cc3)C(c3ccc(F)cc3)N12 (stereo not drawn) | > 100 µM | 74.5 µM | > 100 µM | > 100 µM | > 100 µM | > 100 µM | > 100 | > 100 µM | > 100 | > 100 |  |  |  |
| [O-][n+]1cc(SCc2ccccc2)ncc1SCc1ccccc1 | > 10 µM | > 10 µM | > 10 µM | > 10 µM | > 10 µM | > 10 µM | > 10 | > 10 µM | > 10 | > 10 |  |  |  |
| c1ccc2c(c1)[C@@H]1O[C@@H]1[C@@]13O[C@@]21[C@H]1O[C@H]1c1ccccc13 | 30.7 µM | 24.3 µM | 35.1 µM | 29.3 µM | 32.1 µM | 34.8 µM | 30 | 26.7 µM | 38.2 | 28.1 |  |  |  |

| SMILES | TGI (A498 renal) | TGI (CCRF-CEM leukemia) | TGI (HCC-2998 colon) | TGI (IGROV1 ovarian) | TGI (OVCAR-3 ovarian) | TGI (OVCAR-5 ovarian) | TGI (PC-3 prostate) [µM] | TGI (SK-MEL-5 melanoma) | TGI (SN12C renal) [µM] | TGI (UACC-62 melanoma) [µM] | GI50 (A498 renal) | GI50 (IGROV1 ovarian) | GI50 (OVCAR-5 ovarian) |
| --- | --- | --- | --- | --- | --- | --- | --- | --- | --- | --- | --- | --- | --- |
| Oc1cccc(-c2cn3cc(Cl)ccc3n2)c1 | > 100 µM | 81.5 µM | > 100 µM | > 100 µM | > 100 µM | > 100 µM | > 100 | 35.9 µM | > 100 | > 100 |  |  |  |
| CC(=O)OC1COC(n2c(N)c(C#N)c(-c3ccccc3)c(C#N)c2=S)C(OC(C)=O)C1OC(C)=O (stereo not drawn) | 66 µM and 79.3 µM | 67.7 µM and > 100 µM | 90.1 µM and 56.9 µM | > 100 µM | > 100 µM and 97.2 µM | > 100 µM | > 100 | > 100 µM and 95.4 µM | > 100 | > 100 |  |  |  |
| O=C1/C(=C/Cc2ccco2)N=C(c2ccccc2)N1c1nc2c(Cl)cc(Cl)cc2s1 | 43.4 µM | 39.8 µM | > 100 µM | > 100 µM | 52.6 µM | > 100 µM | 74.8 | > 100 µM | > 100 | > 100 |  |  |  |
| Nc1nc(Cl)cc(NCC2CC(O)(CO)C2)n1 (stereo not drawn) | > 100 µM | > 100 µM | > 100 µM | > 100 µM | > 100 µM | > 100 µM | > 100 | > 100 µM | > 100 | > 100 |  |  |  |
| O=C(O)CCC(NC(=O)/C(=C/c1ccccc1)NC(=O)c1ccccc1)C(=O)O (stereo not drawn) | > 100 µM | > 100 µM | > 100 µM | > 100 µM | > 100 µM | > 100 µM | > 100 | > 100 µM | > 100 | > 100 |  |  |  |
| O=C(OCC(OC(=O)c1ccccc1)C1CC(C(O)C2CCCCC2)C(=O)O1)c1ccccc1 (stereo not drawn) | > 100 µM | 52.8 µM | > 100 µM | > 100 µM | > 100 µM | > 100 µM | > 100 | 32.2 µM | > 100 | > 100 |  |  |  |
| CC(C)c1cc(C(C)C)c(B(c2ccccc2)c2ccccc2)c(C(C)C)c1Br | > 100 µM | > 100 µM | > 100 µM | > 100 µM | > 100 µM | > 100 µM | > 100 | > 100 µM | > 100 | > 100 |  |  |  |
| C(=N\Nc1nnc(-c2nnc(N/N=C/c3ccccc3)o2)o1)/c1ccccc1 | > 10 µM | > 10 µM | > 10 µM | > 10 µM | > 10 µM | > 10 µM | > 10 | > 10 µM | > 10 | > 10 |  |  |  |
| CC(NC1=NCCO1)c1ccco1 (stereo not drawn) | > 100 µM | > 100 µM | > 100 µM | > 100 µM | > 100 µM | > 100 µM | > 100 | > 100 µM | > 100 | > 100 |  |  |  |
| Cc1cc(C)c(N)c(CO)c1 | 0.231 µM and 0.409 µM | > 100 µM | > 100 µM | 33.3 µM and 46.9 µM | > 100 µM | 6.61 µM and 19 µM | > 100 | > 100 µM | > 100 | > 90.2 | 0.0675 µM and 0.183 µM | 4.25 µM and 10.2 µM | 1.17 µM and 4.31 µM |
| NC(=O)c1ccc(S(=O)(=NS(=O)(=O)c2ccccc2)c2ccc(C(N)=O)cc2)cc1 | > 100 µM | > 100 µM | > 100 µM | > 100 µM | > 100 µM | > 100 µM | > 100 | > 100 µM | > 100 | > 100 |  |  |  |
| CSC(=N/N=C(\C)c1ccc(S(=O)(=O)N(C)c2ccccc2)cc1)SC | > 100 µM | > 95.2 µM | > 100 µM | > 100 µM | > 100 µM | > 100 µM | > 100 | > 100 µM | > 100 | > 100 |  |  |  |
| COc1ccc(OC)c([N+](=O)[O-])c1-c1nc2sc(C)cn2c1/C=N/N=C(N)N | 78 µM | > 100 µM | 60.3 µM | 33 µM | 85.6 µM | > 100 µM | > 100 | 49.9 µM | 90.1 | 69.3 |  |  |  |
| C[S+](C)C1(c2ccccc2)C(=O)c2ccccc2C1=O | > 100 µM | > 85.8 µM | 42.8 µM | > 100 µM | > 100 µM | > 89.7 µM | > 100 | > 53.5 µM | > 100 | > 62.7 |  |  |  |
| CC(=O)O[C@H]1CC[C@]2(C=O)[C@H]3CC[C@]4(C)[C@@H](C5=CC(=O)OC5)CC[C@]4(O)[C@@H]3CC[C@]2(O)C1 | 1.16 µM | > 31.6 µM | 1.33 µM | 3.99 µM | 0.622 µM | 1.87 µM | 1.38 | 0.473 µM | 1.53 | 1.1 |  |  |  |
| CC(=O)OCC12C(OC(C)=O)C[C@@H](C)C3(CC(c4ccoc4)OC3=O)C1CCC(OC(C)=O)C21CO1 (stereo partly drawn) | > 100 µM | > 100 µM | > 100 µM | > 100 µM | > 100 µM | > 100 µM | > 100 | > 100 µM | > 100 | > 100 |  |  |  |
